Assay results reported in ChEMBL document CHEMBL4651402, “Screening of ~5500 FDA-approved drugs and clinical candidates for anti-SARS-CoV-2 activity” (2021).
Numbered stars: 1 amine (or outer) side, 2 acyl side, 3 side chain; on linkers, the order of the positions; unused ones are H or OH. Bridge positions count the residues as written; N and C are the ends. Square brackets hold non-standard residues; d marks the D form. Peptide text beside a SMILES is read from it. * marks the point of attachment. X1 = NC1=N[C@@H]([C@H](N[*:1])C(=O)[*:2])C[C@H](O)N1; ΔAla(Z-3-ureido) = NC(=O)N/C=C(\N)C(=O)O; β3hOrn = NCCC[C@H](N)CC(=O)*; Dap = NC[C@H](N)C(=O)O

Test system: SARS-CoV-2
Assay: microbe, parasite or virus in culture
Settings: Severe acute respiratory syndrome coronavirus 2, Vero C1008, 48 h

SMILES	IC50 [µM]	IC50 (read-out: pIC50 (converted)) [µM]
COc1ccccc1OCC(O)CNC(C)C (stereo not given) [MOPROLOL]	> 20	> 20
Cn1c(=O)c2c(ncn2CC2OCCO2)n(C)c1=O [DOXOFYLLINE]	> 20	> 20
C=CC(C)(C)c1cc(/C=C/C(=O)c2ccc(O)cc2)c(OC)cc1O [LICOAGROCHACONE A]	> 20	> 20
COC(=O)C(N)CS (stereo not given) [MECYSTEINE]	> 20	> 20
CNC(=O)c1c(I)c(C(=O)NCC(=O)Nc2c(I)c(C(=O)O)c(I)c(C(=O)NCCO)c2I)c(I)c(N(C)C(C)=O)c1I [IOXAGLIC ACID]	> 20	> 20
NCC(O)c1ccc(O)cc1 (stereo not given) [OCTOPAMINE]	> 20	> 20
O=C(NC1CCN(CCc2c[nH]c3ccccc23)CC1)c1ccccc1 [INDORAMIN]	> 20	> 20
Cc1cc(=O)oc2cc(O)cc(O)c12 [5,7-DIHYDROXY-4-METHYLCOUMARIN]	> 20	> 20
CCC[C@@]1(CCc2ccccc2)CC(O)=C([C@H](CC)c2cccc(NS(=O)(=O)c3ccc(C(F)(F)F)cn3)c2)C(=O)O1	> 20	> 20
CNC(=C[N+](=O)[O-])NCCSCc1ccc(CN(C)C)o1 [RANITIDINE]	> 20	> 20
COc1ccc2c(c1)[nH]c1c(C)nccc12 [HARMINE]	> 20	> 20
N#Cc1cc2c(OCC(O)CN3CCN(C(c4ccccc4)c4ccccc4)CC3)cccc2[nH]1 (stereo not given)	> 20	> 20
NC(=O)c1cnc2n1CCc1ccccc1C21CCNCC1 [VAPITADINE]	> 20	> 20
CCc1cccc(CC)c1NC(=O)CN(CC(=O)O)CC(=O)O [ETIFENIN]	> 20	> 20
CCCCOc1cc(CC2CNC(=O)N2)ccc1OC (stereo not given) [RO-201724]	> 20	> 20
CCOP(=O)(Cc1ccc(C(=O)Nc2ccc(Br)cc2C#N)cc1)OCC [IBROLIPIM]	> 20	> 20
Clc1ccc(C(OCCN2CCCCC2)c2ccccc2)cc1 (stereo not given) [CLOPERASTINE]	> 20	> 20
CN(NC(=O)CC(=O)NN(C)C(=S)c1ccccc1)C(=S)c1ccccc1 [ELESCLOMOL]	> 20	> 20
Cc1ccc(S(=O)(=O)Nc2nc3ccccc3nc2Nc2ccc3nsnc3c2)cc1	> 20	> 20
CCCNS(=O)(=O)Nc1ncnc(OCCOc2ncc(Br)cn2)c1-c1ccc(Br)cc1	> 20	> 20
Clc1cc(Cl)c(OCC#CI)cc1Cl [HALOPROGIN]	> 20	> 20
O=C1C=CC(=O)c2ccccc21 [NAPHTHOQUINONE]	> 20	> 20
COc1ccccc1N1CCN(CCn2c(=O)[nH]c3ccccc3c2=O)CC1	> 20	> 20
CCN1[C@@H]2CC[C@H]1C[C@@H](OC(c1ccccc1)c1ccccc1)C2 [ETHYBENZTROPINE]	> 20	> 20
COc1c(O[C@@H]2O[C@H](CO)[C@@H](O)[C@H](O)[C@H]2O)cc2c(c1OC)-c1ccc(SC)c(=O)cc1[C@@H](NC(C)=O)CC2 [THIOCOLCHICOSIDE]	> 20	> 20

SMILES	IC50 [µM]	IC50 (read-out: pIC50 (converted)) [µM]
CCCN(CCC)C(=O)C1=Cc2ccc(-c3ccc(C(=O)N4CCCC4)cc3)cc2N=C(N)C1 [MOTOLIMOD]	> 20	> 20
OC[C@@H]1CCCN2CCCCC12 (stereo not given in full)	> 20	> 20
CNc1ccccc1C(=O)O	> 20	> 20
O=P1(NCCCl)OCCCN1CCCl (stereo not given) [IFOSFAMIDE]	> 20	> 20
CS(=O)(=O)CCNCc1ccc(-c2ccc3ncnc(Nc4ccc(OCc5cccc(F)c5)c(Cl)c4)c3c2)o1 [LAPATINIB]	> 20	> 20
Cn1nc(CO)nc1NCCCOc1cccc(CN2CCCCC2)c1 [LAVOLTIDINE]	> 20	> 20
CC1=C(C)C(=O)C(C(CCCCCC(=O)O)c2ccccc2)=C(C)C1=O (stereo not given) [SERATRODAST]	> 20	> 20
COc1cc2c(cc1OC)[C@@H]1C(=O)c3ccc4c(c3O[C@@H]1CO2)CC(C(C)C)O4 (stereo not given in full) [DIHYDROROTENONE]	> 20	> 20
NCCC(=O)NCCc1c[nH]cn1 [CARCININE]	> 20	> 20
CNCC(O)c1ccc(O)c(O)c1 (stereo not given) [RACEPINEPHRINE]	> 20	> 20
CCCOC(=O)c1ccc(N)cc1 [RISOCAINE]	> 20	> 20
CCO[C@@H]1OC(=O)C[C@@H]1NC(=O)[C@@H]1CCCN1C(=O)[C@@H](NC(=O)c1ccc(N)c(Cl)c1)C(C)(C)C [BELNACASAN]	> 20	> 20
N#Cc1cccc([C@H]2C=C(C(F)(F)F)NC3=C2C(=O)CCC3)c1	> 20	> 20
Nc1ncnc2c1ccn2[C@@H]1O[C@H](CO)[C@@H](O)[C@H]1O [TUBERCIDIN]	> 20	> 20
NC12CC3CC(CC(C3)C1)C2 [AMANTADINE]	> 20	> 20
N=C(N)N [GUANIDINE]	> 20	> 20
Nc1nc(N)nc(-c2cc(Cl)ccc2Cl)n1 [IRSOGLADINE]	> 20	> 20
C=C1CC[C@H](O)C/C1=C/C=C1\CCCC2(C)C1CCC2C(C)/C=C/C(C)C(C)C (stereo not given in full)	> 20	> 20
CNc1ccc(/C=C/c2ccc(OCCOCCOCCF)nc2)cc1 [FLORBETAPIR]	> 20	> 20
N#CC[C@H](C1CCCC1)n1cc(-c2ncnc3[nH]ccc23)cn1 [RUXOLITINIB]	> 20	> 20
CCCCCCC(=O)OCCN1CCN(CCCN2c3ccccc3Sc3ccc(C(F)(F)F)cc32)CC1 [FLUPHENAZINE ENANTHATE]	> 20	> 20
CN[C@H]1CCN(c2cc(NCC3CC3)nc(N)n2)C1	> 20	> 20
Nc1cccc2c1C(=O)N(C1CCC(=O)NC1=O)C2=O (stereo not given) [POMALIDOMIDE]	> 20	> 20
NCCC[C@H](N)CC(=O)N[C@H]1CNC(=O)[C@H]([C@H]2C[C@H](O)NC(N)=N2)NC(=O)/C(=C/NC(N)=O)NC(=O)[C@H](CO)NC(=O)[C@H](CO)NC1=O [VIOMYCIN] (β3hOrn-[Dap]SS[ΔAla(Z-3-ureido)][X1]; lactam 1-C)	> 20	> 20
CN(C)c1cccc2c(S(=O)(=O)Nc3ccc(NC(=O)C(C)(C)CO)cc3)cccc12 [TOMEGLOVIR]	> 20	> 20

SMILES	IC50 [µM]	IC50 (read-out: pIC50 (converted)) [µM]
Nc1nc(F)nc2c1ncn2[C@@H]1O[C@H](CO)[C@@H](O)[C@H]1O	> 20	> 20
CCCN(CCC)c1cc(C)nc2c(-c3cnc(N(C)C)cc3C)c(C)nn12	> 20	> 20
N[C@@H](Cc1ccc(N(CCCl)CCCl)cc1)C(=O)O	> 20	> 20
O=c1[nH]sc2cc(Cl)ccc12 [TICLATONE]	> 20	> 20
C[C@]12CCC(=O)C=C1CC[C@@H]1[C@@H]2CC[C@]2(C)C(=O)CC[C@@H]12 [ANDROSTENEDIONE]	> 20	> 20
CC(=O)Oc1cc(C)c(OC(C)=O)c2ccccc12 [ACETOMENAPHTHONE]	> 20	> 20
CC#CC(=O)N[C@H]1CCCN(c2c(F)cc(C(N)=O)c3[nH]c(C)c(C)c23)C1 [BRANEBRUTINIB]	> 20	> 20
CCN(CC)CCOC(=O)C(c1ccccc1)C1(O)CCCC1 (stereo not given)	> 20	> 20
CC/C(=C(/CC)c1ccc(O)cc1)c1ccc(O)cc1 [DIETHYLSTILBESTROL]	> 20	> 20
CCC(=O)OC1(c2ccccc2)CCN(C)CC1C (stereo not given) [ALPHAPRODINE]	> 20	> 20
COc1ccc(Cl)cc1[C@]1(F)C(=O)Nc2cc(C(F)(F)F)ccc21 [FLINDOKALNER]	> 20	> 20
CC1(C)OC2CC(=O)OCC23C1CC(=O)C1(C)C3CCC2(C)C(c3ccoc3)OC(=O)C3OC321 (stereo not given)	> 20	> 20
O=C1Nc2ccc(Cl)cc2[C@](C#CC2CC2)(C(F)(F)F)O1	> 20	> 20
C[C@H]1C[C@@H]2[C@H]([C@@H](O)C[C@@]3(C)[C@H]2CC[C@]3(O)C(=O)CO)[C@@]2(C)C=CC(=O)C=C12 [METHYLPREDNISOLONE]	> 20	> 20
Cc1c(N)cccc1Cn1ccc(OCCc2cccs2)cc1=O [CG-400549]	> 20	> 20
CN1C(C)(C)CC(OC(=O)CCC(=O)OC2CC(C)(C)N(C)C(C)(C)C2)CC1(C)C [SUXEMERID]	> 20	> 20
CN(C)CC(CN1c2ccccc2Sc2ccccc21)N(C)C (stereo not given) [AMINOPROMAZINE]	> 20	> 20
CCOCCOc1ccccc1C(N)=O [ETOSALAMIDE]	> 20	> 20
CC[C@H]1OC(=O)[C@H](C)[C@@H](O[C@H]2C[C@@](C)(OC)[C@@H](O)[C@H](C)O2)[C@H](C)[C@@H](O[C@@H]2O[C@H](C)C[C@H](N(C)C)[C@H]2O)[C@](C)(O)C[C@@H](C)C(=O)[C@H](C)[C@H]2OC(=O)O[C@@]21C	> 20	> 20
Nc1c(CC(=O)O)cccc1C(=O)c1ccc(Br)cc1 [BROMFENAC]	> 20	> 20
Nc1nc(=O)c2sc(=O)n([C@@H]3O[C@H](CO)[C@@H](O)[C@H]3O)c2[nH]1 [ISATORIBINE]	> 25.1	> 25.1
CC(C)Oc1ccccc1N1CCN(Cc2cccc(C(=O)N3CCCCC3)c2)CC1 [MAZAPERTINE]	> 20	> 20
O=C(/C=C\n1cnc(-c2cc(C(F)(F)F)cc(C(F)(F)F)c2)n1)NNc1cnccn1 [SELINEXOR]	> 20	> 20
N#CC(c1ccc(Cl)cc1)c1ccc(-n2ncc(=O)[nH]c2=O)cc1Cl (stereo not given) [CLAZURIL]	> 20	> 20
CC(C)(Oc1ccc(C(=O)c2ccc(Cl)cc2)cc1)C(=O)O [FENOFIBRIC ACID]	> 20	> 20
